In patent publication US6982348B2, “Aminoethanol derivatives” (Takeda Pharmaceutical Company Limited, priority 2001, dated 2006):

| melting point [°C] | Compound |
| --- | --- |
| 152 to 153 | CC(C)(C)OC(=O)N[C@H](Cc1cccc(S(=O)(=O)C(F)(F)F)c1)[C@@H](O)c1ccc(F)cc1 (racemic) [Example 279, tert-butyl (1RS,2SR)-2-(4-fluorophenyl)-2-hydroxy-1-{3-[(trifluoromethyl)sulfonyl]benzyl}ethylcarbamate] |
| 156 to 157 | O=C(N[C@H](Cc1cccc(S(=O)(=O)C(F)(F)F)c1)[C@@H](O)c1ccc(F)cc1)c1cccc2c1C=CCCC2 (racemic) [Example 280, N-((1RS,2SR)-2-(4-fluorophenyl)-2-hydroxy-1-{3-[(trifluoromethyl)sulfonyl]benzyl}ethyl)-6,7-dihydro-5H-benzo[a][7]annulene-1-carboxamide] |
| 157 to 158 | O=C(N[C@H](Cc1cccc(S(=O)(=O)C(F)(F)F)c1)[C@@H](O)c1ccc(F)cc1)c1ccc(F)c2ccccc12 (racemic) [Example 281, 4-fluoro-N-((1RS,2SR)-2-(4-fluorophenyl)-2-hydroxy-1-{3-[(trifluoromethyl)sulfonyl]benzyl}ethyl)-1-naphthamide] |
| 161 to 162 | CC(C)Oc1cccc(C[C@@H](NC(=O)c2cccc3c2C=CCCC3)[C@@H](O)c2ccc(F)cc2)c1 (racemic) [Example 282, N-[(1RS,2SR)-2-(4-fluorophenyl)-2-hydroxy-1-(3-isopropoxybenzyl)ethyl]-6,7-dihydro-5H-benzo[a]cycloheptene-1-carboxamide] |
| 190 to 191 | CC(C)Oc1cccc(C[C@@H](NC(=O)c2ccc(F)c3ccccc23)[C@@H](O)c2ccc(F)cc2)c1 (racemic) [Example 283, 4-fluoro-N-[(1RS,2SR)-2-(4-fluorophenyl)-2-hydroxy-1-(3-isopropoxybenzyl)ethyl]-1-naphthamide] |
| 179 to 180 | O=C(N[C@H](Cc1cccc(O)c1)[C@@H](O)c1ccc(F)cc1)c1ccc(F)c2ccccc12 (racemic) [Example 286, 4-fluoro-N-[(1RS,2SR)-2-(4-fluorophenyl)-2-hydroxy-1-(3-hydroxybenzyl)ethyl]-1-naphthamide] |
| 136 to 137 | O=C(N[C@H](Cc1cccc(OC(F)(F)C(F)F)c1)[C@@H](O)c1ccc(F)cc1)OCc1ccccc1 (racemic) [Example 287, benzyl N-[(1RS,2SR)-2-(4-fluorophenyl)-2-hydroxy-1-[3-(1,1,2,2-tetrafluoroethoxy)benzyl]ethyl]carbamate] |
| 115 to 116 | CC1(C)CC=Cc2c(cccc2C(=O)N[C@H](Cc2cccc(OC(F)(F)C(F)F)c2)[C@@H](O)c2ccc(F)cc2)C1 (racemic) [Example 288, N-[(1RS,2SR)-2-(4-fluorophenyl)-2-hydroxy-1-[3-(1,1,2,2-tetrafluoroethoxy)benzyl]ethyl]-6,6-dimethyl-6,7-dihydro-5H-benzo[a]cycloheptene-1-carboxamide] |
| 177 to 178 | O=C(N[C@H](Cc1cccc(OC(F)(F)C(F)F)c1)[C@@H](O)c1ccc(Cl)s1)c1cccc2c1C=CCCC2 (racemic) [Example 289, N-[(1RS,2RS)-2-(5-chloro-2-thienyl)-2-hydroxy-1-[3-(1,1,2,2-tetrafluoroethoxy)benzyl]ethyl]-6,7-dihydro-5H-benzo[a]cycloheptene-1-carboxamide] |
| 184 to 185 | O=C(N[C@H](Cc1cccc(OC(F)(F)C(F)F)c1)[C@@H](O)c1ccc(Br)cc1)c1cccc2c1C=CCCC2 (racemic) [Example 290, N-[(1RS,2SR)-2-(4-bromophenyl)-2-hydroxy-1-[3-(1,1,2,2-tetrafluoroethoxy)benzyl]ethyl]-6,7-dihydro-5H-benzo[a]cycloheptene-1-carboxamide] |
| 122 to 123 | O=C(N[C@H](Cc1cccc(OC(F)(F)C(F)F)c1)[C@@H](O)c1ccc(-c2ccccc2)cc1)c1cccc2c1C=CCCC2 (racemic) [Example 291, N-[(1RS,2SR)-2-(1,1′-biphenyl-4-yl)-2-hydroxy-1-[3-(1,1,2,2-tetrafluoroethoxy)benzyl]ethyl]-6,7-dihydro-5H-benzo[a]cycloheptene-1-carboxamide] |
| 178 to 179 | O=C(N[C@H](Cc1cccc(OC(F)(F)C(F)F)c1)[C@@H](O)c1ccc(-c2ccsc2)cc1)c1cccc2c1C=CCCC2 (racemic) [Example 292, N-[(1RS,2SR)-2-hydroxy-1-[3-(1,1,2,2-tetrafluoroethoxy)benzyl]-2-[4-(3-thienyl)phenyl]ethyl]-6,7-dihydro-5H-benzo[a]cycloheptene-1-carboxamide] |
| 172 to 173 | O=C(N[C@H](Cc1cccc(OC(F)(F)C(F)F)c1)[C@@H](O)c1ccc(-c2ccccc2Cl)cc1)c1cccc2c1C=CCCC2 (racemic) [Example 293, N-[(1RS,2SR)-2-(2′-chloro[1,1′-biphenyl]-4-yl)-2-hydroxy-1-[3-(1,1,2,2-tetrafluoroethoxy)benzyl]ethyl]-6,7-dihydro-5H-benzo[a]cycloheptene-1-carboxamide] |
| 167 to 168 | O=C(N[C@H](Cc1cccc(OC(F)(F)C(F)F)c1)[C@@H](O)c1ccc(-c2ccc(Cl)cc2)cc1)c1cccc2c1C=CCCC2 (racemic) [Example 294, N-[(1RS,2SR)-2-(4′-chloro[1,1′-biphenyl]-4-yl)-2-hydroxy-1-[3-(1,1,2,2-tetrafluoroethoxy)benzyl]ethyl]-6,7-dihydro-5H-benzo[a]cycloheptene-1-carboxamide] |
| 131 to 132 | O=C(N[C@H](Cc1cccc(OC(F)(F)C(F)F)c1)[C@@H](O)c1ccc(-c2cccc(Cl)c2)cc1)c1cccc2c1C=CCCC2 (racemic) [Example 295, N-[(1RS,2SR)-2-(3′-chloro[1,1′-biphenyl]-4-yl)-2-hydroxy-1-[3-(1,1,2,2-tetrafluoroethoxy)benzyl]ethyl]-6,7-dihydro-5H-benzo[a]cycloheptene-1-carboxamide] |
| 148 to 150 | COc1ccccc1-c1ccc([C@H](O)[C@@H](Cc2cccc(OC(F)(F)C(F)F)c2)NC(=O)c2cccc3c2C=CCCC3)cc1 (racemic) [Example 296, N-[(1RS,2SR)-2-hydroxy-2-(2′-methoxy[1,1′-biphenyl]-4-yl)-1-[3-(1,1,2,2-tetrafluoroethoxy)benzyl]ethyl]-6,7-dihydro-5H-benzo[a]cycloheptene-1-carboxamide] |
| 162 to 163 | COc1ccc(-c2ccc([C@H](O)[C@@H](Cc3cccc(OC(F)(F)C(F)F)c3)NC(=O)c3cccc4c3C=CCCC4)cc2)cc1 (racemic) [Example 297, N-[(1RS,2SR)-2-hydroxy-2-(4′-methoxy[1,1′-biphenyl]-4-yl)-1-[3-(1,1,2,2-tetrafluoroethoxy)benzyl]ethyl]-6,7-dihydro-5H-benzo[a]cycloheptene-1-carboxamide] |
| 79 to 81 | COc1cccc(-c2ccc([C@H](O)[C@@H](Cc3cccc(OC(F)(F)C(F)F)c3)NC(=O)c3cccc4c3C=CCCC4)cc2)c1 (racemic) [Example 298, N-[(1RS,2SR)-2-hydroxy-2-(3′-methoxy[1,1′-biphenyl]-4-yl)-1-[3-(1,1,2,2-tetrafluoroethoxy)benzyl]ethyl]-6,7-dihydro-5H-benzo[a]cycloheptene-1-carboxamide] |
| 174 to 176 | O=Cc1ccc(-c2ccc([C@H](O)[C@@H](Cc3cccc(OC(F)(F)C(F)F)c3)NC(=O)c3cccc4c3C=CCCC4)cc2)cc1 (racemic) [Example 299, N-[(1RS,2SR)-2-(4′-formyl[1,1′-biphenyl]-4-yl)-2-hydroxy-1-[3-(1,1,2,2-tetrafluoroethoxy)benzyl]ethyl]-6,7-dihydro-5H-benzo[a]cycloheptene-1-carboxamide] |
| 103 to 105 | O=Cc1cccc(-c2ccc([C@H](O)[C@@H](Cc3cccc(OC(F)(F)C(F)F)c3)NC(=O)c3cccc4c3C=CCCC4)cc2)c1 (racemic) [Example 300, N-[(1RS,2SR)-2-(3′-formyl[1,1′-biphenyl]-4-yl)-2-hydroxy-1-[3-(1,1,2,2-tetrafluoroethoxy)benzyl]ethyl]-6,7-dihydro-5H-benzo[a]cycloheptene-1-carboxamide] |
| 195 to 196 | O=Cc1ccccc1-c1ccc([C@H](O)[C@@H](Cc2cccc(OC(F)(F)C(F)F)c2)NC(=O)c2cccc3c2C=CCCC3)cc1 (racemic) [Example 301, N-[(1RS,2SR)-2-(2′-formyl[1,1′-biphenyl]-4-yl)-2-hydroxy-1-[3-(1,1,2,2-tetrafluoroethoxy)benzyl]ethyl]-6,7-dihydro-5H-benzo[a]cycloheptene-1-carboxamide] |
| 152 to 154 | O=C(N[C@H](Cc1cccc(OC(F)(F)C(F)F)c1)[C@@H](O)c1ccc(-c2ccccc2CO)cc1)c1cccc2c1C=CCCC2 (racemic) [Example 302, N-[(1RS,2SR)-2-[2′-(hydroxymethyl)[1,1′-biphenyl]-4-yl]-2-hydroxy-1-[3-(1,1,2,2-tetrafluoroethoxy)benzyl]ethyl]-6,7-dihydro-5H-benzo[a]cycloheptene-1-carboxamide] |
| 178 to 179 | O=C(N[C@H](Cc1cccc(OC(F)(F)C(F)F)c1)[C@@H](O)c1ccc(-c2cccc(CO)c2)cc1)c1cccc2c1C=CCCC2 (racemic) [Example 303, N-[(1RS,2SR)-2-[3′-(hydroxymethyl)[1,1′-biphenyl]-4-yl]-2-hydroxy-1-[3-(1,1,2,2-tetrafluoroethoxy)benzyl]ethyl]-6,7-dihydro-5H-benzo[a]cycloheptene-1-carboxamide] |
| 189 to 191 | O=C(N[C@H](Cc1cccc(OC(F)(F)C(F)F)c1)[C@@H](O)c1ccc(-c2ccc(CO)cc2)cc1)c1cccc2c1C=CCCC2 (racemic) [Example 304, N-[(1RS,2SR)-2-[4′-(hydroxymethyl)[1,1′-biphenyl]-4-yl]-2-hydroxy-1-[3-(1,1,2,2-tetrafluoroethoxy)benzyl]ethyl]-6,7-dihydro-5H-benzo[a]cycloheptene-1-carboxamide] |

| Compound | melting point [°C] |
| --- | --- |
| CC(C)(C)Oc1ccc(C[C@@H](NC(=O)c2cccc3c(Cl)cccc23)[C@@H](O)c2cccc(Cl)c2)cc1 (racemic) [Example 278, N-[(1RS,2SR)-1-(4-tert-butoxybenzyl)-2-(3-chlorophenyl)-2-hydroxyethyl]-5-chloro-1-naphthamide] | 132 to 133 |
